Experiment [1] has as its system p-p70 S6 Kinase (Thr389) in MCF-7 cells. The experiment in a line: AlphaLISA Ultra pS6K1 assay. Type of experiment: cell-based. The conditions noted are these: Homo sapiens, 1.5 h; MCF7 cells, 90 min. The method, boiled down: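 MCF-7 cells seeded 20–24 h, given fresh medium 2 h, then treated with compounds 90 min (0.5% DMSO final). Cells lysed, lysates frozen at −80 °C, then Thr389-phosphorylated S6K1 detected by AlphaLISA Ultra with acceptor beads 2 h, then donor beads 2 h.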
On the technique in general: Alpha assays give light when donor and acceptor beads are brought close together.

For experiment [2], the system named is p-Akt 1/2/3 (Ser473) in MCF-7 cells. Description: AlphaLISA Ultra pAKT assay. The experiment is classed as cell-based. Particulars: Homo sapiens, 1.5 h; MCF7 cells, 90 min. The method, boiled down: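 MCF-7 cells (16,000˜20,000 per well in 36 μL medium) were seeded in Corning 3701 plates for 20˜24 hour, refreshed with new medium for 90 minutes, then given 12 μL of 4× compound (0.5% final DMSO). Cells were lysed with 2× lysis buffer, and lysate was analyzed by AlphaLISA Ultra pAKT using acceptor and donor beads, read on an EnSpire reader.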

For experiment [3], the system named is pS6K1 T389 and pAkt S473 in PC3 cells. Description: Western blot based pS6K1 and pAKT assay at 24 and 48 hour timepoints. Type of experiment: cell-based. The method in brief: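 PC3 cells (500,000/well) were treated with compound for 24 to 48 h, then lysed in 1% Triton buffer. Equal protein from Bradford-normalized lysates was analysed by Western blot for pS6K1 T389 and pAkt S473 with Li-Cor infrared detection.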
(In general: In western blotting, separated proteins are transferred to a membrane and probed.)

A further experiment concerns mTORC1 over mTORC2. The experiment in a line: mTORC1 over mTORC2 selectivity by comparing pS6K1 and pAKT IC50. The experiment is classed as cell-based. Particulars: by comparing pS6K1 and pAKT IC50, 90 min. The method, boiled down: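 MCF-7 cells were treated with compounds (0.5% final DMSO) for 90 minutes in one protocol and 2 hours in the other, then lysed. Phospho-signal in lysates was read by bead-based donor/acceptor proximity assay. pS6K1 and pAKT IC50 values were compared to judge mTORC1 over mTORC2 selectivity, at 90 min and at 24 hrs.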

A further experiment concerns PC3 cells. Particulars: 1 or 24 hour treatment; cited from earlier work.
A further experiment concerns human adipocytes. Also on record: dose or concentration left out as unconfirmed. The conditions noted are these: therapeutic concentration; cited from earlier work.
The subject of another experiment is Lmna−/− mice. Particulars: short-term treatment; cited from earlier work.

Some results are limits rather than exact numbers.

With `CO[C@@H]1C[C@H](C[C@@H](C)[C@@H]2CC(=O)[C@H](C)/C=C(\C)[C@@H](O)[C@@H](OC)C(=O)[C@H](C)C[C@H](C)/C=C/C=C/C=C(\C)[C@@H](OC[C@@H]3COCCO3)C[C@@H]3CC[C@@H](C)[C@@](O)(O3)C(=O)C(=O)N3CCCC[C@H]3C(=O)O2)CC[C@H]1OCCO` [I-85, (1R,9S,12S,15R,16E,18R,19R,21R,23S,24E,26E,28E,30S,32S,35R)-30-[[(2S)-1,4-dioxan-2-yl]methoxy]-1,18-dihydroxy-12-[(1R)-2-[(1S,3R,4R)-4-(2-hydroxyethoxy)-3-methoxy-cyclohexyl]-1-methyl-ethyl]-19-methoxy-15,17,21,23,29,35-hexamethyl-11,36-dioxa-4-azatricyclo[30.3.1.04,9]hexatriaconta-16,24,26,28-tetraene-2,3,10,14,20-pentone], the IC50 in experiment [1] was 1 to 10 nM; in experiment [2] it was ≥ 1000 nM. Besides, in experiment [3], the “mTORC1 selective @ 24 hrs” value is reported as “Yes”. In the experiment with mTORC1 over mTORC2, the “mTORC1 selective @ 90 min” value is reported as “Yes”.
`CO[C@@H]1/C(C)=C/[C@@H](C)C(=O)C[C@@H]([C@H](C)C[C@@H]2CC[C@@H](O)[C@H](OC)C2)OC(=O)[C@@H]2CCCCN2C(=O)C(=O)[C@]2(O)O[C@@H](CC[C@H]2C)C[C@H](OCCOC2COC2)/C(C)=C/C=C/C=C/[C@@H](C)C[C@@H](C)C(=O)[C@@H]1OC` [I-97, (1R,9S,12S,15R,16E,18R,19R,21R,23S,24E,26E,28E,30S,32S,35R)-1-hydroxy-12-[(1R)-2-[(1S,3R,4R)-4-hydroxy-3-methoxy-cyclohexyl]-1-methyl-ethyl]-18,19-dimethoxy-15,17,21,23,29,35-hexamethyl-30-[2-(oxetan-3-yloxy)ethoxy]-11,36-dioxa-4-azatricyclo[30.3.1.0^4,9]hexatriaconta-16,24,26,28-tetraene-2,3,10,14,20-pentone]: the IC50 in experiment [1] and in experiment [2] was ≥ 1000 nM each time. Further, the “mTORC1 selective @ 24 hrs” value in experiment [3] is on record as “No”. The “mTORC1 selective @ 90 min” value with mTORC1 over mTORC2 is given as “No”.
With `CO[C@H]1C[C@@H]2CC[C@@H](C)[C@@](O)(O2)C(=O)C(=O)N2CCCC[C@H]2C(=O)O[C@H]([C@H](C)C[C@@H]2CC[C@@H](O)[C@H](OC)C2)CC(=O)[C@H](C)/C=C(\C)[C@@H](O)[C@@H](OC)C(=O)[C@H](C)C[C@H](C)/C=C/C=C/C=C/1C` [rapamycin], in the experiment on PC3 cells, the “Akt phosphorylation (S473)” value is “strongly decreased Akt phosphorylation”. In addition, in the experiment with human adipocytes, the “AKT (PKB) Ser473 phosphorylation” value was “reduced AKT (PKB) Ser473 phosphorylation” and the glucose uptake result is on record as “reduced glucose uptake”. In the experiment on Lmna−/− mice, the enhanced survival is listed as ~50%.
Regarding `COCCO[C@@H]1CC[C@@H](C[C@@H](C)[C@@H]2CC(=O)[C@H](C)/C=C(\C)[C@@H](O)[C@@H](OC)C(=O)[C@H](C)C[C@H](C)/C=C/C=C/C=C(\C)[C@@H](OC[C@H]3COCCO3)C[C@@H]3CC[C@@H](C)[C@@](O)(O3)C(=O)C(=O)N3CCCC[C@H]3C(=O)O2)C[C@H]1OC` [I-64, (1R,9S,12S,15R,16E,18R,19R,21R,23S,24E,26E,28E,30S,32S,35R)-30-[[(2R)-1,4-dioxan-2-yl]methoxy]-1,18-dihydroxy-19-methoxy-12-[(1R)-2-[(1S,3R,4R)-3-methoxy-4-(2-methoxyethoxy)cyclohexyl]-1-methyl-ethyl]-15,17,21,23,29,35-hexamethyl-11,36-dioxa-4-azatricyclo[30.3.1.0^4,9]hexatriaconta-16,24,26,28-tetraene-2,3,10,14,20-pentone], the IC50 in experiment [1] is 1 to 10 nM. Further, in experiment [3], the “mTORC1 selective @ 24 hrs” value is “Yes”.
With `COCCS(=O)(=O)CCO[C@H]1C[C@@H]2CC[C@@H](C)[C@@](O)(O2)C(=O)C(=O)N2CCCC[C@H]2C(=O)O[C@H]([C@H](C)C[C@@H]2CC[C@@H](OC)[C@H](OC)C2)CC(=O)[C@H](C)/C=C(\C)[C@@H](OC)[C@@H](OC)C(=O)[C@H](C)C[C@H](C)/C=C/C=C/C=C/1C` [I-43, (24E,26E,28E,29E,35R,36S,37R,38R,40S,42S,44S,45S,46R,47R,56R)-45-[(1R)-2-[(1S,3R,4R)-3,4-dimethoxycyclohexyl]-1-methyl-ethyl]-56-hydroxy-46,47-dimethoxy-44-[2-(2-methoxyethylsulfonyl)ethoxy]-35,36,37,38,48,49-hexamethyl-66,67-dioxa-57-azatricyclohexatriaconta-24,26,28(48),29(49)-tetraene-50,51,52,53,54-pentone], the IC50 in experiment [1] is 10 to 100 nM. The “mTORC1 selective @ 24 hrs” value in experiment [3] was “Yes”.
Turning to `COCCO[C@@H]1CC[C@@H](C[C@@H](C)[C@@H]2CC(=O)[C@H](C)/C=C(\C)[C@@H](OC)[C@@H](OC)C(=O)[C@H](C)C[C@H](C)/C=C/C=C/C=C(\C)[C@@H](OCCOC3COC3)C[C@@H]3CC[C@@H](C)[C@@](O)(O3)C(=O)C(=O)N3CCCC[C@H]3C(=O)O2)C[C@H]1OC` [I-83, (1R,9S,12S,15R,16E,18R,19R,21R,23S,24E,26E,28E,30S,32S,35R)-1-hydroxy-18,19-dimethoxy-12-[(1R)-2-[(1S,3R,4R)-3-methoxy-4-(2-methoxyethoxy)cyclohexyl]-1-methyl-ethyl]-15,17,21,23,29,35-hexamethyl-30-[2-(oxetan-3-yloxy)ethoxy]-11,36-dioxa-4-azatricyclo[30.3.1.0^4,9]hexatriaconta-16,24,26,28-tetraene-2,3,10,14,20-pentone], the IC50 in experiment [1] and in experiment [2] was ≥ 1000 nM each time. For the same compound, in experiment [3], the “mTORC1 selective @ 24 hrs” value was “No”. Moreover, in the experiment with mTORC1 over mTORC2, the “mTORC1 selective @ 90 min” value is recorded as “No”.
In the case of `COCCOCCO[C@H]1C[C@@H]2CC[C@@H](C)[C@@](O)(O2)C(=O)C(=O)N2CCCC[C@H]2C(=O)O[C@H]([C@H](C)C[C@@H]2CC[C@@H](O)[C@H](OC)C2)CC(=O)[C@H](C)/C=C(\C)[C@@H](OC)[C@@H](OC)C(=O)[C@H](C)C[C@H](C)/C=C/C=C/C=C/1C` [I-49, (23E,25E,27E,28E,34R,35S,36R,37R,39S,41S,43S,44S,45R,46R,55R)-55-hydroxy-44-[(1R)-2-[(1S,3R,4R)-4-hydroxy-3-methoxy-cyclohexyl]-1-methyl-ethyl]-45,46-dimethoxy-43-[2-(2-methoxyethoxy)ethoxy]-34,35,36,37,47,48-hexamethyl-64,65-dioxa-56-azatricyclohexatriaconta-23,25,27(47),28(48)-tetraene-49,50,51,52,53-pentone], the 50% inhibitory concentration (IC50) in experiment [1] is 1 to 10 nM. Besides, the “mTORC1 selective @ 24 hrs” value in experiment [3] is reported as “Yes”.

By IC50 is commonly meant the concentration at which inhibition is half-maximal.
